Test results reported in the NIST ThermoML archive (doi:10.1016/j.jct.2015.12.027).
Numbers after ± are expanded uncertainties.

Key:
[1] = refractive index (Na D-line) (dimensionless); conditions: 81.5 kPa, Liquid, Standard Abbe refractometry
[2] = 81.5 kPa, Liquid, Vibrating tube method
[3] = refractive index (Na D-line) (dimensionless); xn = mol fraction of the nth substance listed; conditions: 81.5 kPa, Liquid, Standard Abbe refractometry
[4] = xn = mol fraction of the nth substance listed; conditions: 81.5 kPa, Liquid, Vibrating tube method

| SMILES | refractive index ([1]; 293.15 K) | refractive index ([1]; 303.15 K) | refractive index ([1]; 313.15 K) | refractive index ([1]; 323.15 K) | refractive index ([1]; 333.15 K) | mass density ([2]; 293.15 K) [kg/m3] | mass density ([2]; 303.15 K) [kg/m3] | mass density ([2]; 313.15 K) [kg/m3] | mass density ([2]; 323.15 K) [kg/m3] | mass density ([2]; 333.15 K) [kg/m3] | refractive index ([3]; 293.15 K, x1 = 1) | refractive index ([3]; 303.15 K, x1 = 1) | refractive index ([3]; 313.15 K, x1 = 1) | refractive index ([3]; 323.15 K, x1 = 1) | refractive index ([3]; 333.15 K, x1 = 1) | mass density ([4]; 293.15 K, x1 = 1) [kg/m3] | mass density ([4]; 303.15 K, x1 = 1) [kg/m3] | mass density ([4]; 313.15 K, x1 = 1) [kg/m3] | mass density ([4]; 323.15 K, x1 = 1) [kg/m3] | mass density ([4]; 333.15 K, x1 = 1) [kg/m3] | further results |
| --- | --- | --- | --- | --- | --- | --- | --- | --- | --- | --- | --- | --- | --- | --- | --- | --- | --- | --- | --- | --- | --- |
| ClCCCl [1,2-dichloroethane] | 1.44472 ± 0.01 | 1.43948 ± 0.01 | 1.43423 ± 0.01 | 1.42897 ± 0.01 | 1.42373 ± 0.01 | 1252.82 ± 10 | 1238.27 ± 10 | 1223.53 ± 10 | 1208.61 ± 10 | 1193.61 ± 10 | – | – | – | – | – | – | – | – | – | – | – |
| ClCCCl [1,2-dichloroethane] + Brc1ccccc1 | – | – | – | – | – | – | – | – | – | – | 1.44472 ± 0.01 | 1.43948 ± 0.01 | 1.43423 ± 0.01 | 1.42897 ± 0.01 | 1.42373 ± 0.01 | 1252.82 ± 10 | 1238.27 ± 10 | 1223.53 ± 10 | 1208.61 ± 10 | 1193.61 ± 10 | – |
| ClCCCl [1,2-dichloroethane] + Clc1ccccc1 | – | – | – | – | – | – | – | – | – | – | 1.44472 ± 0.01 | 1.43948 ± 0.01 | 1.43423 ± 0.01 | 1.42897 ± 0.01 | 1.42373 ± 0.01 | 1252.82 ± 10 | 1238.27 ± 10 | 1223.53 ± 10 | 1208.61 ± 10 | 1193.61 ± 10 | – |
| ClCCCl [1,2-dichloroethane] + O=[N+]([O-])c1ccccc1 | – | – | – | – | – | – | – | – | – | – | 1.44472 ± 0.01 | 1.43948 ± 0.01 | 1.43423 ± 0.01 | 1.42897 ± 0.01 | 1.42373 ± 0.01 | 1252.82 ± 10 | 1238.27 ± 10 | 1223.53 ± 10 | 1208.61 ± 10 | 1193.61 ± 10 | – |
| c1ccccc1 [benzene] | 1.50118 ± 0.01 | 1.49517 ± 0.01 | 1.4885 ± 0.01 | 1.48264 ± 0.01 | 1.47638 ± 0.01 | 878.87 ± 10 | 868.2 ± 10 | 857.44 ± 10 | 846.62 ± 10 | 835.71 ± 10 | – | – | – | – | – | – | – | – | – | – | – |
| c1ccccc1 [benzene] + ClCCCl | – | – | – | – | – | – | – | – | – | – | – | – | – | – | – | – | – | – | – | – | refractive index ([3]; 293.15 K, x2 = 0): 1.50118 ± 0.01; refractive index ([3]; 303.15 K, x2 = 0): 1.49517 ± 0.01; refractive index ([3]; 313.15 K, x2 = 0): 1.4885 ± 0.01; refractive index ([3]; 323.15 K, x2 = 0): 1.48264 ± 0.01; refractive index ([3]; 333.15 K, x2 = 0): 1.47638 ± 0.01; mass density ([4]; 293.15 K, x2 = 0): 878.87 ± 10 kg/m3; mass density ([4]; 303.15 K, x2 = 0): 868.2 ± 10 kg/m3; mass density ([4]; 313.15 K, x2 = 0): 857.44 ± 10 kg/m3; mass density ([4]; 323.15 K, x2 = 0): 846.62 ± 10 kg/m3; mass density ([4]; 333.15 K, x2 = 0): 835.71 ± 10 kg/m3 |
| Brc1ccccc1 [bromobenzene] | 1.55981 ± 0.01 | 1.55442 ± 0.01 | 1.5489 ± 0.01 | 1.54319 ± 0.01 | 1.53742 ± 0.01 | 1495.52 ± 10 | 1481.97 ± 10 | 1468.41 ± 10 | 1454.85 ± 10 | 1441.22 ± 10 | – | – | – | – | – | – | – | – | – | – | – |
| Clc1ccccc1 [chlorobenzene] | 1.52455 ± 0.01 | 1.51902 ± 0.01 | 1.51346 ± 0.01 | 1.50781 ± 0.01 | 1.50223 ± 0.01 | 1106.49 ± 10 | 1095.71 ± 10 | 1084.86 ± 10 | 1073.96 ± 10 | 1063.01 ± 10 | – | – | – | – | – | – | – | – | – | – | – |
| O=[N+]([O-])c1ccccc1 [nitrobenzene] | 1.55241 ± 0.01 | 1.54763 ± 0.01 | 1.54288 ± 0.01 | 1.53795 ± 0.01 | 1.53289 ± 0.01 | 1203.05 ± 10 | 1193.15 ± 10 | 1183.21 ± 10 | 1173.27 ± 10 | 1163.32 ± 10 | – | – | – | – | – | – | – | – | – | – | – |
